Literature values, collected in patent publication US20170333404A1, “IMPROVED FORMULATIONS OF VEMURAFENIB AND METHODS OF MAKING THE SAME” (DISPERSOL TECHNOLOGIES, LLC, priority 2014, published 2017).

Key:
[1] = compared to the crystalline form
V600E mutation in b-raf = conditions: patients with a V600E mutation in b-raf
[2] = not given; remark: listed apart in the source
[3] = tested on: BRAFV600E/K mutant advanced or malignant melanoma; conditions: Trametinib arm
melanoma = conditions: at 5 years, adjuvant treatment

For `CCCS(=O)(=O)Nc1ccc(F)c(C(=O)c2c[nH]c3ncc(-c4ccc(Cl)cc4)cc23)c1F` [amorphous form of vemurafenib, vemurafenib], the solubility in water [1] is listed as “improved solubility in water”.
In the case of `CCCS(=O)(=O)Nc1ccc(F)c(C(=O)c2c[nH]c3ncc(-c4ccc(Cl)cc4)cc23)c1F` [vemurafenib], the “patients showing partial to complete regression” value (V600E mutation in b-raf) is given as roughly 80%, the “patients with skin lesions that may need surgical removal” value (at MTD of 960 mg twice a day) is given as 31% and the “maximum tolerated dose (MTD)” value (patients) is given as 960 mg twice a day. The “patients with reduced numbers of cancer cells” value (advanced melanoma; group of 16 patients with advanced melanoma) was “over half”, the “median increased survival time over the control group” value (advanced melanoma; treated group vs control group) was 6 months and the “arthralgia, patients” value ([2]; BRIM-2, 132 patients) was 58%. For the same compound, the “photosensitivity, patients” value ([2]; BRIM-2, 132 patients) was 52%, the “skin rash, patients” value ([2]; BRIM-2, 132 patients) was 52% and the “patients in whom dose modification was necessary” value ([2]; BRIM-2, to manage side effects) was 45%. The programmed cell death (melanoma cell lines; melanoma cell lines) was “cause programmed cell death” and the “inhibition of melanoma cells” value (melanoma cell lines; melanoma cells without BRAF V600E/V600K mutations) was “not inhibited”.
For `CC(=O)Nc1cccc(-n2c(=O)n(C3CC3)c(=O)c3c(Nc4ccc(I)cc4F)n(C)c(=O)c(C)c32)c1` [Trametinib], the “Grade 3 adverse effect: hypertension” value [3] is given as 12% and the “Grade 3 adverse effect: rash” value [3] is given as 7%.
In the case of interferon, the increase in survival (melanoma) is listed as 3%.
